According to PubChem BioAssay AID256 (DTP/NCI, 2004):
Where “and” joins values, the source holds several entries; their conditions need not be identical. Equal entries are not always repeated. Toxic doses and inconclusive results are not listed. How the source made its calls: active means survival T/C of 150% or more; inactive means T/C below 125% in these data. Non-standard residues stand in square brackets, D forms with d. Residues, ends and D or L forms follow the SMILES beside them. ξ: configuration not given here. ξF = NC(Cc1ccccc1)C(=O)O

Test system: CD2F1 mice, L1210 leukemia ip, survival T/C
Test: NCI In Vivo Anticancer Drug Screen. Data for tumor model L1210 Leukemia (intraperitoneal) in CD2F1 (CDF1) mice
Conditions: higher = longer survival
In short: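 Vehicle-treated tumor-bearing mice served as controls (C) for compound-treated mice (T). Reported figure is T divided by C.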

[1] = endpoint: mean survival time, dose: 100.0 mg/kg/injection, schedule: Q04DX003 (ip), vehicle: saline with Tween-80
[2] = endpoint: mean survival time, dose: 200.0 mg/kg/injection, schedule: Q04DX003 (ip), vehicle: saline with Tween-80
[3] = endpoint: mean survival time, dose: 400.0 mg/kg/injection, schedule: Q04DX003 (ip), vehicle: saline with Tween-80
[4] = endpoint: mean survival time, dose: 12.5 mg/kg/injection, schedule: Q01DX009 (ip), vehicle: other
[5] = endpoint: mean survival time, dose: 25.0 mg/kg/injection, schedule: Q01DX009 (ip), vehicle: other
[6] = endpoint: mean survival time, dose: 50.0 mg/kg/injection, schedule: Q01DX009 (ip), vehicle: other
[7] = endpoint: mean survival time, dose: 50.0 mg/kg/injection, schedule: Q04DX003 (ip), vehicle: saline with Tween-80

Measured: T/C

CC(=O)OCC1OC(N2C(=O)C=CC2=O)C(OC(C)=O)C1OC(C)=O (configuration not stated)
inactive: endpoint: mean survival time, dose: 1.56 mg/kg/injection, schedule: Q01DX005 (ip), vehicle: water 110 % of control | endpoint: mean survival time, dose: 3.13 mg/kg/injection, schedule: Q01DX005 (ip), vehicle: water 96 % of control | endpoint: mean survival time, dose: 6.25 mg/kg/injection, schedule: Q01DX005 (ip), vehicle: water 104 % of control | endpoint: mean survival time, dose: 12.5 mg/kg/injection, schedule: Q01DX005 (ip), vehicle: water 95 % of control and 102 % of control | endpoint: mean survival time, dose: 25.0 mg/kg/injection, schedule: Q01DX005 (ip), vehicle: water 106 % of control

CCCC(C)(C)O
inactive: [1] 104 % of control | [2] 107 % of control | [3] 101 % of control

CSC(=O)NC(=O)c1ccccc1
inactive: [1] 100 % of control | [2] 103 % of control | [3] 105 % of control

NS(=O)(=O)c1ccc(SSc2ccc(S(N)(=O)=O)cc2[N+](=O)[O-])c([N+](=O)[O-])c1
inactive: [4] 95 % of control | [5] 95 % of control | [6] 96 % of control | endpoint: mean survival time, dose: 100.0 mg/kg/injection, schedule: Q01DX009 (ip), vehicle: other 98 % of control | endpoint: mean survival time, dose: 200.0 mg/kg/injection, schedule: Q01DX009 (ip), vehicle: other 95 % of control

CC(C#N)N(C)C (configuration not stated)
inactive: endpoint: mean survival time, dose: 10.0 mg/kg/injection, schedule: Q04DX003 (ip), vehicle: saline 97 % of control | endpoint: mean survival time, dose: 20.0 mg/kg/injection, schedule: Q04DX003 (ip), vehicle: saline 104 % of control | endpoint: mean survival time, dose: 40.0 mg/kg/injection, schedule: Q04DX003 (ip), vehicle: saline 97 % of control

O=C(Nc1ccccc1)Nc1ccc(Cl)c(Cl)c1
inactive: endpoint: mean survival time, dose: 100.0 mg/kg/injection, schedule: Q04DX003 (ip), vehicle: acetone 98 % of control | endpoint: mean survival time, dose: 200.0 mg/kg/injection, schedule: Q04DX003 (ip), vehicle: acetone 101 % of control | endpoint: mean survival time, dose: 400.0 mg/kg/injection, schedule: Q04DX003 (ip), vehicle: acetone 106 % of control

S=P(c1ccccc1)(N1CC1)N1CC1
inactive: endpoint: mean survival time, dose: 6.25 mg/kg/injection, schedule: Q01DX009 (ip), vehicle: Klucel (hydroxypropylcellulose) (HPC) 102 % of control | endpoint: mean survival time, dose: 6.25 mg/kg/injection, schedule: Q01DX009 (ip), vehicle: other 95 % of control | endpoint: mean survival time, dose: 12.5 mg/kg/injection, schedule: Q01DX009 (ip), vehicle: Klucel (hydroxypropylcellulose) (HPC) 102 % of control | [4] 118 % of control and 104 % of control | endpoint: mean survival time, dose: 22.0 mg/kg/injection, schedule: Q01DX009 (ip), vehicle: other 115 % of control | endpoint: mean survival time, dose: 25.0 mg/kg/injection, schedule: Q01DX009 (ip), vehicle: Klucel (hydroxypropylcellulose) (HPC) 104 % of control | [5] 106 % of control | endpoint: mean survival time, dose: 25.0 mg/kg/injection, schedule: Q04DX002 (ip), vehicle: saline with Tween-80 96 % of control | endpoint: mean survival time, dose: 44.0 mg/kg/injection, schedule: Q04DX002 (ip), vehicle: other 97 % of control | endpoint: mean survival time, dose: 44.0 mg/kg/injection, schedule: Q04DX003 (ip), vehicle: other 106 % of control | endpoint: mean survival time, dose: 50.0 mg/kg/injection, schedule: Q01DX009 (ip), vehicle: Klucel (hydroxypropylcellulose) (HPC) 118 % of control | [6] 123 % of control | endpoint: mean survival time, dose: 50.0 mg/kg/injection, schedule: Q04DX002 (ip), vehicle: saline with Tween-80 103 % of control and 106 % of control | endpoint: mean survival time, dose: 66.0 mg/kg/injection, schedule: Q04DX002 (ip), vehicle: other 109 % of control | endpoint: mean survival time, dose: 66.0 mg/kg/injection, schedule: Q04DX003 (ip), vehicle: other 118 % of control | endpoint: mean survival time, dose: 75.0 mg/kg/injection, schedule: Q01DX009 (ip), vehicle: other 101 % of control | endpoint: mean survival time, dose: 100.0 mg/kg/injection, schedule: Q04DX002 (ip), vehicle: other 115 % of control | endpoint: mean survival time, dose: 100.0 mg/kg/injection, schedule: Q04DX002 (ip), vehicle: saline with Tween-80 117 % of control | endpoint: mean survival time, dose: 100.0 mg/kg/injection, schedule: Q04DX003 (ip), vehicle: other 108 % of control | endpoint: mean survival time, dose: 118.0 mg/kg/injection, schedule: Q01DX001 (ip), vehicle: other 100 % of control | endpoint: mean survival time, dose: 150.0 mg/kg/injection, schedule: Q04DX002 (ip), vehicle: other 103 % of control | endpoint: mean survival time, dose: 178.0 mg/kg/injection, schedule: Q01DX001 (ip), vehicle: other 97 % of control | endpoint: mean survival time, dose: 266.0 mg/kg/injection, schedule: Q01DX001 (ip), vehicle: other 109 % of control | endpoint: mean survival time, dose: 400.0 mg/kg/injection, schedule: Q01DX001 (ip), vehicle: other 100 % of control

Brc1ccc([I+]c2ccc(Br)cc2)cc1
inactive: endpoint: mean survival time, dose: 12.5 mg/kg/injection, schedule: Q04DX003 (ip), vehicle: saline with Tween-80 105 % of control | endpoint: mean survival time, dose: 25.0 mg/kg/injection, schedule: Q04DX003 (ip), vehicle: saline with Tween-80 95 % of control | [7] 101 % of control | [3] 94 % of control

NCC(=O)NC(Cc1ccccc1)C(=O)O (configuration not stated) (H-Gly-[ξF]-OH)
inactive: endpoint: mean survival time, dose: 50.0 mg/kg/injection, schedule: Q01DX009 (ip), vehicle: saline with Tween-80 102 % of control | endpoint: mean survival time, dose: 100.0 mg/kg/injection, schedule: Q01DX009 (ip), vehicle: saline with Tween-80 100 % of control | endpoint: mean survival time, dose: 200.0 mg/kg/injection, schedule: Q01DX009 (ip), vehicle: saline with Tween-80 100 % of control

C[C@H](N)C(=O)N[C@@H]1[C@H]2C(=C(O)C[C@@H](O)[C@@H]2O)C(=O)O[C@]1(C)C(Cl)Cl
active: endpoint: median survival time, dose: 0.75 mg/kg/injection, schedule: Q01DX009 (ip), vehicle: saline 150 % of control and 152 % of control and 155 % of control | endpoint: median survival time, dose: 1.5 mg/kg/injection, schedule: Q01DX009 (ip), vehicle: saline 155 % of control and 176 % of control and 190 % of control | endpoint: median survival time, dose: 1.5 mg/kg/injection, schedule: Q01DX009 (ip), vehicle: water 153 % of control | endpoint: median survival time, dose: 2.7 mg/kg/injection, schedule: Q01DX005 (ip), vehicle: saline 167 % of control
inactive: endpoint: median survival time, dose: 0.07 mg/kg/injection, schedule: Q03HX024 (ip), vehicle: saline 106 % of control | endpoint: median survival time, dose: 0.09 mg/kg/injection, schedule: Q01DX009 (ip), vehicle: saline 106 % of control and 109 % of control | endpoint: median survival time, dose: 0.14 mg/kg/injection, schedule: Q03HX024 (ip), vehicle: saline 120 % of control | endpoint: median survival time, dose: 0.18 mg/kg/injection, schedule: Q01DX009 (ip), vehicle: saline 114 % of control and 118 % of control | endpoint: median survival time, dose: 0.19 mg/kg/injection, schedule: Q01DX009 (ip), vehicle: Klucel (hydroxypropylcellulose) (HPC) 105 % of control and 110 % of control and 112 % of control | endpoint: median survival time, dose: 0.21 mg/kg/injection, schedule: Q03HX008 (ip), vehicle: saline 103 % of control | endpoint: median survival time, dose: 0.28 mg/kg/injection, schedule: Q03HX024 (ip), vehicle: saline 124 % of control | endpoint: median survival time, dose: 0.34 mg/kg/injection, schedule: Q01DX005 (ip), vehicle: saline 116 % of control | endpoint: median survival time, dose: 0.34 mg/kg/injection, schedule: Q01DX005 (iv), vehicle: saline 98 % of control | endpoint: median survival time, dose: 0.37 mg/kg/injection, schedule: Q01DX009 (ip), vehicle: Klucel (hydroxypropylcellulose) (HPC) 120 % of control | endpoint: median survival time, dose: 0.37 mg/kg/injection, schedule: Q01DX009 (ip), vehicle: saline 124 % of control | endpoint: median survival time, dose: 0.37 mg/kg/injection, schedule: Q01DX009 (ip), vehicle: water 118 % of control | endpoint: median survival time, dose: 0.38 mg/kg/injection, schedule: Q01DX009 (ip), vehicle: Klucel (hydroxypropylcellulose) (HPC) 117 % of control and 123 % of control and 111 % of control | endpoint: median survival time, dose: 0.42 mg/kg/injection, schedule: Q03HX008 (ip), vehicle: saline 116 % of control | endpoint: median survival time, dose: 0.56 mg/kg/injection, schedule: Q04DX003 (ip), vehicle: saline 113 % of control | endpoint: median survival time, dose: 0.68 mg/kg/injection, schedule: Q01DX005 (iv), vehicle: saline 109 % of control | endpoint: median survival time, dose: 1.13 mg/kg/injection, schedule: Q04DX003 (ip), vehicle: saline 116 % of control | endpoint: median survival time, dose: 1.69 mg/kg/injection, schedule: Q01DX001 (ip), vehicle: saline 112 % of control | endpoint: median survival time, dose: 1.69 mg/kg/injection, schedule: Q01DX001 (iv), vehicle: saline 101 % of control | endpoint: median survival time, dose: 2.25 mg/kg/injection, schedule: Q04DX003 (ip), vehicle: saline 124 % of control | endpoint: median survival time, dose: 3.0 mg/kg/injection, schedule: Q01DX009 (oral), vehicle: saline 100 % of control | endpoint: median survival time, dose: 3.38 mg/kg/injection, schedule: Q01DX001 (ip), vehicle: saline 116 % of control | endpoint: median survival time, dose: 3.38 mg/kg/injection, schedule: Q01DX001 (iv), vehicle: saline 113 % of control | endpoint: median survival time, dose: 6.0 mg/kg/injection, schedule: Q01DX009 (ip), vehicle: water 91 % of control | endpoint: median survival time, dose: 6.0 mg/kg/injection, schedule: Q01DX009 (oral), vehicle: saline 97 % of control | endpoint: median survival time, dose: 12.0 mg/kg/injection, schedule: Q01DX009 (oral), vehicle: saline 100 % of control | endpoint: median survival time, dose: 24.0 mg/kg/injection, schedule: Q01DX009 (oral), vehicle: saline 112 % of control

CC(C)C1(NC(=O)C2C=C3c4cccc5[nH]cc(c45)CC3N(C)C2)OC2(O)C3CCCN3C(=O)C(Cc3ccccc3)N2C1=O (configuration not stated)
inactive: [7] 96 % of control | [1] 105 % of control | [2] 100 % of control
